*1 amine or outer side, *2 acyl side, *3 side chain or, on linkers, in order; H or OH if unused. Where a SMILES comes first, the peptide text is derived from it. [ ]: non-standard residue; d: D form. The star is where a group is joined. CH3O(CH2CH2O)11CH2CH2CO = COCCOCCOCCOCCOCCOCCOCCOCCOCCOCCOCCOCCC(=O)*; X1 = O=C(Cn1cnc2ccc(N3CCN([*:1])CC3)cc2c1=O)[*:2]; Arachidoyl = CCCCCCCCCCCCCCCCCCCC(=O)*
Legend:
Assay type in all cases: cell-based
hNPY2R [1] = target: T1, hNPY2R (Homo sapiens, UniProt P49146); experiment: CaFlux Assay (FLIPR), Y2R; set-up: expressed in transfected cells; host or cells: HEK-293 stably transfected with G protein chimera Gαqi9
T1 sequence (P49146 1-381): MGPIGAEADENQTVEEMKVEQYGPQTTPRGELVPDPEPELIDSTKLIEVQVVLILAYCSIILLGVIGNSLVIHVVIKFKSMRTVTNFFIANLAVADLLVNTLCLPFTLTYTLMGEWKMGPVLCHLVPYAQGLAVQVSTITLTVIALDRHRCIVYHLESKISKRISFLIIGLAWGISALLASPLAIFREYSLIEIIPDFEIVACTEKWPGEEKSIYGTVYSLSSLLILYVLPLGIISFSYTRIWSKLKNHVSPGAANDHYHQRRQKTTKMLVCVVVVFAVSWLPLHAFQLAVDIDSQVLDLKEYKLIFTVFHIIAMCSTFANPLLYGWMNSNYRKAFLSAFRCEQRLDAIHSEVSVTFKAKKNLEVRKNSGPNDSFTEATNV
Protocol: HEK-293 cells were stably transfected with the G protein chimera Gαqi9 and the hygromycin-B resistance gene were further transfected with the human NPY2 receptor and G418 antibiotic selection. Following selection in both hygromycin-B and G418, individual clones were assayed for their response to PYY. The transfected cells were cultured in DMEM medium supplemented with 10% fetal bovine serum, 50 μg/mL hygromycin-B, 2 mM glutamine, 100 U/mL penicillin, 100 μg/mL streptomycin and 250 μg/mL G418. Cells are harvested with trypsin-EDTA and counted using ViaCount reagent. The cell suspension volume is adjusted to 4.8×10^5 cells/mL with complete growth media. Aliquots of 25 μL are dispensed into 384 well Poly-D Lysine coated black/clear microplates (Falcon) and the microplates were placed in a 37° C. CO2 incubator overnight. Loading Buffer (Calcium-3 Assay Kit, Molecular Devices) was prepared by dissolving the contents of one vial (Express Kit) into […] Hank's Balanced Salt Solution containing 20 mM HEPES and 5 mM probenecid. Aliquots of 25 μL of diluted dye were dispensed into the cell plates and the plates are then incubated for 1 hour at 37° C. During the incubation, test compounds were prepared at 3.5× the desired concentration in HBSS (20 mM HEPES)/0.05% BSA/1% DMSO and transferred to a 384-well plate for use on FLIPR. After incubation, both the cell and compound plates were brought to the FLIPR and 20 μL of the diluted compounds were transferred to the cell plates by the FLIPR. During the assay, fluorescence readings were taken simultaneously from all 384 wells of the cell plate every 1.5 seconds. Five readings were taken to establish a stable baseline, and then 20 μL of sample was rapidly (30 μL/sec) and simultaneously added to each well of the cell plate. The fluorescence was continuously monitored before, during and after sample addition for a total elapsed time of 100 seconds. Responses (increase in peak fluorescence) in each well following addition were determined. The initial fluorescence reading from each well, prior to ligand stimulation, was used as a zero baseline value for the data from that well. The responses are expressed as % of maximal response of the positive control.

hNPY2R [2] = target: T1, hNPY2R; experiment: cAMP Agonist Assay, HEK293/hNPY2R; set-up: expressed in transfected cells; host or cells: HEK293/hNPY2R (G418 selection)
Protocol: In this example, the following materials were used: 384-well plate; Tropix cAMP-Screen Kit; cAMP ELISA System (Applied Biosystems, cat. #T1505; CS 20000); Forskolin (Calbiochem cat. # 344270); cells: HEK293/hNPY2R; growth medium: Dulbecco's modified eagle medium (D-MEM, Gibco); 10% Fetal bovine serum (FBS, Gibco), heat-inactivated; 1% Penicillin/Streptomycin (Pen 10000 unit/mL: Strep […], Gibco); […] G418 (Geneticin, Gibco cat. # 11811-031); and plating medium: DMEM/F12 w/o phenol red (Gibco); 10% FBS (Gibco, cat. # 10082-147), heat-inactivated; 1% Penicillin/Streptomycin (Gibco, cat. # 15140-122); […] G418 (Geneticin, Gibco, cat. # 11811-031).
On the first day, medium was discarded, and the monolayer cells were washed with 10 mL PBS per flask (T225). After decanting with PBS, 5 mL VERSENE (Gibco, cat #1504006) was used to dislodge the cells (5 min @37 C). The flask was gently tapped and the cell suspension was pooled. Each flask was rinsed with 10 mL plating medium and centrifuged at 1000 rpm for 5 min. The suspension was pooled and counted. The suspension was resuspended in plating medium at a density of 2.0×10^5 cells/mL for HEK293/hNPY2R. 50 microliters of cells (HEK293/hNPY2R-10,000 cells/well) were transferred into the 384-well plate using Multi-drop dispenser. The plates were incubated at 37° C. overnight. On the second day, the cells were checked for 75-85% confluence. The media and reagents were allowed to come to room temperature. Before the dilutions were prepared, the stock solution of stimulating compound in dimethyl sulphoxide (DMSO, Sigma, cat #D2650) was allowed to warm up to 32 C for 5-10 min. The dilutions were prepared in DMEM/F12 with 0.5 mM 3-Isobutyl-1-methylxanthine (IBMX, Calbiochem, cat #410957) and 0.5 mg/mL BSA. The final DMSO concentration in the stimulation medium was 1.1% with Forskolin concentration of 5 μM. The cell medium was tapped off with a gentle inversion of the cell plate on a paper towel. 50 μL of stimulation medium was placed per well (each concentration done in four replicates). The plates were incubated at room temperature for 30 min, and the cells were checked under a microscope for toxicity. After 30 minutes of treatment, the stimulation media was discarded and […] of Assay Lysis Buffer (provided in the Tropix kit) was added. The plates were incubated for 45 min @ 37° C. 20 μL of the lysate was transferred from stimulation plates into the pre-coated antibody plates (384-well) from the Tropix kit. 10 μL of AP conjugate and 20 μL of anti-cAMP antibody was added. The plates were incubated at room temperature while shaking for 1 hour. The plates were then washed 5 times with Wash Buffer, 70 μL per well for each wash. The plates were tapped to dry. 30 μL/well of CSPD/Saphire-II RTU substrate/enhancer solution was added and incubated for 45 min @ RT (shake). Signal for 1 sec/well in a Luminometer. (VICTOR-V) was measured.

Y1R = target: T2, Y1R (Homo sapiens, UniProt P25929); experiment: CaFlux Assay (FLIPR), Y1R
T2 sequence (P25929 1-384): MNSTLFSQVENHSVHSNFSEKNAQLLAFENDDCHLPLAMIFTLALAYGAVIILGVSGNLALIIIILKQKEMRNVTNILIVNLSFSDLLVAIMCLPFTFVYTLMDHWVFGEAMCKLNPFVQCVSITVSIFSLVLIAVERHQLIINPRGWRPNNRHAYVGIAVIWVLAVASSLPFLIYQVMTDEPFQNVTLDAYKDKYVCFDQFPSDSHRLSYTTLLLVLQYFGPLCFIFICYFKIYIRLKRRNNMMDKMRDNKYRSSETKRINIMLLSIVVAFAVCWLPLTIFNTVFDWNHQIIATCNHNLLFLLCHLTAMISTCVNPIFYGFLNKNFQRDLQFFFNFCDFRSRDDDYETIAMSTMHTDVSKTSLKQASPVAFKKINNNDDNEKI

Y4R = Y4R (Homo sapiens, UniProt P50391); experiment: CaFlux Assay (FLIPR), Y4R
Y5R = target: T3, Y5R (Homo sapiens, UniProt Q15761); experiment: CaFlux Assay (FLIPR), Y5R
T3 sequence (Q15761 1-445): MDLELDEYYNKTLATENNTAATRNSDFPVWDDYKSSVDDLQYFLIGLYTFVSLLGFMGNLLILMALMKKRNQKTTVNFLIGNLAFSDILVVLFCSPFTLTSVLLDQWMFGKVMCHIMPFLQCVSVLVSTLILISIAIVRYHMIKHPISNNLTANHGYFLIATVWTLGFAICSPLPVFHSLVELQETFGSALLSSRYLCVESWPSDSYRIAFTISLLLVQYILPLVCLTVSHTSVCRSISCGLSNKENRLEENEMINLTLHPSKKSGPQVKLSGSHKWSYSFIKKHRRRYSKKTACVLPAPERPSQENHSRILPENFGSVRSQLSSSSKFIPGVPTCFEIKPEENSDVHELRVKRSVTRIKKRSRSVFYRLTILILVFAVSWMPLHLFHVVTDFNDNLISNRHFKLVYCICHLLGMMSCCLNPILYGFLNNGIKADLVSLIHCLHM

Chain of Y4R (P50391 whole entry): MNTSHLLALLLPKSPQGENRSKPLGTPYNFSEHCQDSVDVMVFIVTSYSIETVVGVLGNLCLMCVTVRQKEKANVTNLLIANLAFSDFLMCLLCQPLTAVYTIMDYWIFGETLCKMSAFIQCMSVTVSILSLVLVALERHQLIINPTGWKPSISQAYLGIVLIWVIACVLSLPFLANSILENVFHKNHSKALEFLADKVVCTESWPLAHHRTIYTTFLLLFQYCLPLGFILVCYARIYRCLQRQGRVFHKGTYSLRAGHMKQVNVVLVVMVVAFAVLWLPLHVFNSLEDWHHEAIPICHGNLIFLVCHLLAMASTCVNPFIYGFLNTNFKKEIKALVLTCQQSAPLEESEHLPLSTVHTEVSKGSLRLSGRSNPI

Compound	EC50 (hNPY2R [1])	EC50 (hNPY2R [2])	EC50 (Y1R)	EC50 (Y4R)	EC50 (Y5R)	Y5R FLIPR agonist character (partial agonist mark) (Y5R; FLIPR)
CCCCCCCCCCCCCCCCCCCC(=O)N[C@@H](CCC(=O)O)C(=O)N[C@@H](CCC(=O)O)C(=O)N[C@H](C(=O)N[C@@H](CCCCNC(=O)CCOCCOCCOCCOCCOCCOCCOCCOCCOCCOCCOCCOC)C(=O)N1CCN(c2ccc3ncn(CC(=O)N[C@@H](CCCNC(=N)N)C(=O)N[C@@H](Cc4c[nH]cn4)C(=O)N[C@@H](Cc4ccc(O)cc4)C(=O)N[C@@H](Cc4c[nH]cn4)C(=O)N[C@@H](CC(N)=O)C(=O)N[C@@H](Cc4c[nH]c5ccccc45)C(=O)N[C@H](C(=O)N[C@H](C(=O)N[C@@H](CCCNC(=N)N)C(=O)N[C@@H](CCC(N)=O)C(=O)N[C@@H](CCCNC(=N)N)C(=O)N[C@@H](Cc4ccc(O)cc4)C(N)=O)[C@@H](C)O)C(C)C)c(=O)c3c2)CC1)[C@@H](C)CC [Example 55] (Arachidoyl-EEIK(CH3O(CH2CH2O)11CH2CH2CO)[X1]RHYHNWVTRQRY-NH2)	0.027 nM	0.014 nM	> 6000 nM	> 6000 nM	8.66 nM	
CCCCCCCCCCCCCCCC(=O)NCCCCCC(=O)NCCCCCC(=O)N[C@H](C(=O)N[C@@H](CCCCNC(=O)CCOCCOCCOCCOCCOCCOCCOCCOCCOCCOCCOCCOCCOCCOCCOCCOCCOCCOCCOCCOCCOCCOCCOCCOC)C(=O)N1CCN(c2ccc3ncn(CC(=O)N[C@@H](CCCNC(=N)N)C(=O)N[C@@H](Cc4c[nH]cn4)C(=O)N[C@@H](Cc4ccc(O)cc4)C(=O)N[C@@H](CC(C)C)C(=O)N[C@@H](CC(N)=O)C(=O)N[C@@H](Cc4c[nH]c5ccccc45)C(=O)N[C@H](C(=O)N[C@H](C(=O)N[C@@H](CCCNC(=N)N)C(=O)N[C@@H](CCC(N)=O)C(=O)N(C)[C@@H](CCCNC(=N)N)C(=O)N[C@@H](Cc4ccc(O)cc4)C(N)=O)[C@@H](C)O)C(C)C)c(=O)c3c2)CC1)[C@@H](C)CC [Example 42]	0.069 nM	0.13 nM	> 6000 nM	> 6000 nM	815 nM	
CCCCCCCCCCCCCCCC(=O)NCCCCCC(=O)NCCCCCC(=O)N[C@H](C(=O)N[C@@H](CCCCNC(=O)CCOCCOCCOCCOCCOCCOCCOCCOCCOCCOCCOCCOCCOCCOCCOCCOC)C(=O)N1CCN(c2ccc3ncn(CC(=O)N[C@@H](CCCNC(=N)N)C(=O)N[C@@H](Cc4c[nH]cn4)C(=O)N[C@@H](Cc4ccc(O)cc4)C(=O)N[C@@H](CC(C)C)C(=O)N[C@@H](CC(N)=O)C(=O)N[C@@H](Cc4c[nH]c5ccccc45)C(=O)N[C@H](C(=O)N[C@H](C(=O)N[C@@H](CCCNC(=N)N)C(=O)N[C@@H](CCC(N)=O)C(=O)N(C)[C@@H](CCCNC(=N)N)C(=O)N[C@@H](Cc4ccc(O)cc4)C(N)=O)[C@@H](C)O)C(C)C)c(=O)c3c2)CC1)[C@@H](C)CC [Example 41]	0.04 nM	0.17 nM	> 6000 nM	> 6000 nM	1320 nM	
CCCCCCCCCCCCCCCC(=O)NCCOCCNC(=O)CCC(=O)NCCCC[C@H](NC(=O)[C@@H](NC(=O)CCOCCOCCOCCOCCOCCOCCOCCOCCOCCOCCOCCOCCOCCOCCOCCOCCOCCOCCOCCOCCOCCOCCOCCOC)[C@@H](C)CC)C(=O)N1CCN(c2ccc3ncn(CC(=O)N[C@@H](CCCNC(=N)N)C(=O)N[C@@H](Cc4c[nH]cn4)C(=O)N[C@@H](Cc4ccc(O)cc4)C(=O)N[C@@H](CC(C)C)C(=O)N[C@@H](CC(N)=O)C(=O)N[C@@H](Cc4c[nH]c5ccccc45)C(=O)N[C@H](C(=O)N[C@H](C(=O)N[C@@H](CCCNC(=N)N)C(=O)N[C@@H](CCC(N)=O)C(=O)N(C)[C@@H](CCCNC(=N)N)C(=O)N[C@@H](Cc4ccc(O)cc4)C(N)=O)[C@@H](C)O)C(C)C)c(=O)c3c2)CC1 [Example 15]	0.084 nM	0.06 nM	> 5000 nM	> 5000 nM	248 nM	P.A
